US9453017B2, “Antiviral therapies with phospholipase D inhibitors” (Vanderbilt University, priority 2011, dated 2016)
Like-named read-outs stand apart in the source and are kept apart here.

Experiments:
[1] = system: clathrin in A549 cells infected with A/Brisbane/59/07; assay: Diffuse infection model, clathrin accumulation (FIG. 8a-b); type: cell-based, human
Description: (§1) A549 cells were seeded onto chamber slides and allowed to adhere overnight. The cells were washed with PBS, and serum-free medium containing treatment was added to the cells. After one hour of treatment, the medium was removed and replaced with serum-free medium containing treatment and 0.05 MOI influenza virus. The infected cultures were kept at 4° C. for 15 minutes before being incubated at 37° C. At appropriate times, cultures were removed and fixed with […] and processed for microscopy as above. Z stacks were acquired using a Zeiss LSM 510 microscope, and images were analyzed with ImageJ (Java-based software available from NIH). Data was processed as above.
(§2) Samples were fixed in 4% formaldehyde, permeabilized with 0.3% Triton X-100, and then exposed to antisera targeting proteins of interest and corresponding fluorescent secondary antibodies alongside DAPI to visualize nuclei. Focal infections were imaged and processed using a Nikon C1Si and NIS Elements software. Confocal images were captured with a Zeiss LSM 510 NLO Meta and analyzed with Zeiss Zen 2011 software and ImageJ.
(§3) (i) Quantitation of the area of positive Mx1 staining, n=4 for DMSO and n=5 for drug treatments. ANOVA and Dunnett's post test were used to determine significance of changes when PLD inhibitors were used, and a t-test was used when cells were treated with alcohol, * p<0.05, ** p<0.01, ***, p<0.001, **** p<0.0001. Data in (b, d, f, i) is mean±SEM, n=3 fields of at least 15 cells.

[2] = system: influenza virus; type: cell-based; conditions: 10 μM compound; compared to vehicle; FIG. 2
[3] = system: A/Brisbane/59/2007 (H1N1); type: cell-based, influenza virus; conditions: for infected cells, A/Brisbane/59/2007: 10 μM, vs DMSO vehicle
[4] = system: A/California/04/2009 (H1N1); type: cell-based, influenza virus
[5] = system: RAB5 and CD63 in A549 cells infected with A/California/04/2009; assay: Diffuse infection model, RAB5 and CD63 recruitment (FIG. 8c-f); type: cell-based, human
Description: as §1, §2, §3

[6] = system: influenza virus strains; type: cell-based
[7] = Pharmacokinetics after intraperitoneal injection in mice (FIG. 15); type: in vivo; conditions: mouse
Description: The pharmacokinetic behavior of a representative disclosed PLD inhibitor of the present invention was assessed following intraperitoneal administration in a mouse model. Briefly, mice were administered a single dose of the PLD inhibitor VU0364739 (10 mg/kg) by intraperitoneal injection. Tissue (brain, lung, and liver) and plasma samples were isolated following euthanizing animals (N=2 for each time point) at the indicated time points (see FIG. 15). The samples were flash frozen and stored at −80° C. Analysis was carried out by LC-MS/MS following extraction.

[8] = system: PR8 (A/Puerto Rico/8/1934); assay: Lethal influenza infection in mice, JWJ 13 mg/kg (FIG. 9); type: in vivo, mouse
[9] = system: PR8 influenza A virus; assay: In vivo mouse model of influenza infection, 30 mg/kg (FIGS. 3, 4); conditions: 30 mg/kg intraperitoneal twice daily for 7 days; for survival of infected mice: FIG. 4
Description: A mouse model of influenza infection was used to test the in vivo efficacy of representative disclosed compounds. Compounds were administered at 30 mg/kg and the mice were infected with PR8 influenza A virus. Briefly, C57BL/6J mice (female 8- to 10-wk-old; purchased from The Jackson Laboratory and held under pathogen-free conditions at St. Jude Children's Research Hospital) were used in these studies. Mice were anesthetized by i.p. injection with Avertin (2,2,2-tribromethanol; prepared in-house) before intranasal (i.n.) infection with 80% infective dose (EID80) units of the PR8 influenza A virus in PBS. Mice were administered either the indicated PLD inhibitor (30 mg/kg) or vehicle intraperitoneal starting at 24 hr per exposure. Compounds were administered twice daily for 7 days and subjects were measured for changes in body weight (FIG. 3) or survival (FIG. 4) as a function of PLD inhibitor administration. Mice were sacrificed if moribund.

[10] = system: A/Puerto Rico/8/1934; assay: Traditional plaque assay in MDCK cells (FIG. 14a); conditions: 10 μM, vs DMSO treated control
[11] = system: A549 cells infected with A/Puerto Rico/8/1934; assay: Viral nucleoprotein (NP) / Rab11 trafficking (FIG. 8g); type: cell-based, human; conditions: 5 μM; A/Puerto Rico/8/1934, MOI=5; 16 hr infection
Source text: as §2, §3

[12] = system: phospholipase D (PLD); type: cell-based, human; conditions: 10 μM; A549 cells infected with California/04/2009 at 1 MOI; 6 hours post-infection; FIG. 6
[13] = 50 minutes post-infection, 0.05 MOI, vs DMSO
[14] = 10 μM PLD inhibitor, vs DMSO control
[15] = 80 minutes post-infection, 0.05 MOI, vs DMSO

| SMILES | clathrin accumulation [1, 13] | infection of A549 cells [2] | protection from A/Brisbane/59/2007 infection [3] | infected cells, A/Brisbane/59/2007 [3] | protection from A/California/04/2009 infection ([4]; 10 μM, […], vs vehicle control) | CD63 accumulation [5, 14] | virus infection of A549 cells [6] | clathrin accumulation [1, 15] | survival of infected mice [9] | plaque formation [10] | viral nucleoprotein (NP) trafficking [11] | also measured |
| --- | --- | --- | --- | --- | --- | --- | --- | --- | --- | --- | --- | --- |
| O=C(NCCN1CCC(n2c(=O)[nH]c3ccccc32)CC1)c1ccc2ccccc2c1 [No. 3, N-(2-(4-(2-oxo-2,3-dihydro-1H-benzo[d]imidazol-1-yl)piperidin-1-yl)ethyl)-2-naphthamide] | accumulated less clathrin | blocked infection of A549 cells | still significantly protected | significantly fewer (p<0.001) infected cells | significant protection | significantly less CD63 |  |  |  |  |  |  |
| CCCCO [n-butanol, reference compound] |  |  |  |  |  |  | has a significant effect on virus infection of A549 cells |  |  |  |  | clathrin accumulation ([1]; 0.6% alcohol, 80 minutes after infection, compared to tert-butanol): significantly less clathrin had accumulated; protection from productive infection, A/Brisbane/59/2007 [3]: significantly protected from a productive infection; protection from productive infection, A/California/04/2009 [4]: significantly protected from a productive infection; CD63 accumulation ([5]; 0.6% alcohol, vs respective control (tert-butanol)): significantly less CD63 |
| CC(C)(C)O [tert-butanol] |  |  |  |  |  |  | does not have any effect on virus infection of A549 cells |  |  |  |  |  |
| O=C(NCCN1CCC2(CC1)C(=O)NCN2c1cccc(F)c1)c1ccc2ccccc2c1 [No. 1, N-(2-(1-(3-fluorophenyl)-4-oxo-1,3,8-triazaspiro[4.5]decan-8-yl)ethyl)-2-naphthamide] | accumulated less clathrin | blocked infection of A549 cells | still significantly protected | significantly fewer (p<0.001) infected cells | significant protection | significantly less CD63 |  | persisted at least until 80 minutes | survival improved | less plaque formation | trafficking was disrupted | accumulation in liver and lung ([7]; in vivo, ip, 10 mg/kg): elevated accumulation in liver and lung compared to plasma; accumulation in brain ([7]; single dose 10 mg/kg intraperitoneal, 15 min to 3 hr post-administration): appeared to be constant; exposure in tissues (brain, lung, liver) and plasma ([7]; single dose 10 mg/kg intraperitoneal, FIG. 15): sustained exposure in the tissues examined and in plasma over a period of at least three hours; less likely to die ([8]; 13 mg/kg intraperitoneal, 4000 EID50 PR8, Log-Rank p=0.0061, FIG. 9b): about 27%; mice that survived (of cohort) ([8]; 13 mg/kg intraperitoneal, 4000 EID50 PR8, vehicle one out of 42): 12/38; recovery of weight lost ([8]; 13 mg/kg intraperitoneal, 4000 EID50 PR8, vs vehicle): recovered the weight lost more quickly; weight loss ([8]; 13 mg/kg intraperitoneal, 4000 EID50 PR8, vs vehicle, FIG. 9a): lost significantly less weight; virus in lungs (plaque assay) ([8]; 8 hours after infection, p=0.0017, FIG. 9c): significantly less virus; innate immune response ([8]; 8 hours after infection, vs vehicle): more activated innate immune response; formation of PtdBuOH [12]: inhibited; protection from A/California/04/2009 infection [4]: protected (p<0.05) |
| C[C@@H](CN1CCC(n2c(=O)[nH]c3cc(Br)ccc32)CC1)NC(=O)[C@@H]1C[C@@H]1c1ccccc1 [No. 2, (1R,2S)-N-((S)-1-(4-(5-bromo-2-oxo-2,3-dihydro-1H-benzo[d]imidazol-1-yl)piperidin-1-yl)propan-2-yl)-2-phenylcyclopropanecarboxamide] | accumulated less clathrin | blocked infection of A549 cells | still significantly protected | significantly fewer (p<0.001) infected cells |  | significantly less CD63 |  | persisted at least until 80 minutes | particularly profound | less plaque formation | trafficking was disrupted | weight loss associated with virus infection ([9]; vs vehicle (10% Tween 80), through about day 11 post-infection, FIG. 3): trend of the test compound to protect infected mice against weight loss |
